From the NIST ThermoML archive (doi:10.1016/j.jct.2013.08.021)
Numbers after ± are expanded uncertainties.

Test: molar heat capacity at constant pressure
Conditions: 101 kPa, Liquid, Small sample (50 mg) DSC

## CCC[N+]1(C)CCCC1.O=S(=O)([N-]S(=O)(=O)C(F)(F)F)C(F)(F)F
313.15 K
  molar heat capacity at constant pressure: 541 ± 24 J/K/mol
314.15 K
  molar heat capacity at constant pressure: 544 ± 24 J/K/mol
315.15 K
  molar heat capacity at constant pressure: 548 ± 24 J/K/mol
316.15 K
  molar heat capacity at constant pressure: 551 ± 24 J/K/mol
317.15 K
  molar heat capacity at constant pressure: 554 ± 24 J/K/mol
318.15 K
  molar heat capacity at constant pressure: 556 ± 24 J/K/mol
319.15 K
  molar heat capacity at constant pressure: 559 ± 24 J/K/mol
320.15 K
  molar heat capacity at constant pressure: 561 ± 24 J/K/mol
321.15 K
  molar heat capacity at constant pressure: 563 ± 24 J/K/mol
322.15 K
  molar heat capacity at constant pressure: 565 ± 24 J/K/mol
323.15 K
  molar heat capacity at constant pressure: 567 ± 24 J/K/mol
324.15 K
  molar heat capacity at constant pressure: 569 ± 24 J/K/mol
325.15 K
  molar heat capacity at constant pressure: 571 ± 25 J/K/mol
326.15 K
  molar heat capacity at constant pressure: 573 ± 25 J/K/mol
327.15 K
  molar heat capacity at constant pressure: 575 ± 25 J/K/mol
328.15 K
  molar heat capacity at constant pressure: 576 ± 25 J/K/mol
329.15 K
  molar heat capacity at constant pressure: 578 ± 25 J/K/mol
330.15 K
  molar heat capacity at constant pressure: 579 ± 25 J/K/mol
331.15 K
  molar heat capacity at constant pressure: 581 ± 25 J/K/mol
332.15 K
  molar heat capacity at constant pressure: 582 ± 25 J/K/mol
333.15 K
  molar heat capacity at constant pressure: 584 ± 25 J/K/mol
334.15 K
  molar heat capacity at constant pressure: 585 ± 25 J/K/mol
335.15 K
  molar heat capacity at constant pressure: 586 ± 25 J/K/mol
336.15 K
  molar heat capacity at constant pressure: 588 ± 25 J/K/mol
337.15 K
  molar heat capacity at constant pressure: 589 ± 25 J/K/mol
338.15 K
  molar heat capacity at constant pressure: 590 ± 25 J/K/mol
339.15 K
  molar heat capacity at constant pressure: 591 ± 25 J/K/mol
340.15 K
  molar heat capacity at constant pressure: 593 ± 25 J/K/mol
341.15 K
  molar heat capacity at constant pressure: 594 ± 25 J/K/mol
342.15 K
  molar heat capacity at constant pressure: 595 ± 25 J/K/mol
343.15 K
  molar heat capacity at constant pressure: 597 ± 25 J/K/mol
344.15 K
  molar heat capacity at constant pressure: 598 ± 25 J/K/mol
345.15 K
  molar heat capacity at constant pressure: 599 ± 25 J/K/mol
346.15 K
  molar heat capacity at constant pressure: 600 ± 26 J/K/mol
347.15 K
  molar heat capacity at constant pressure: 601 ± 26 J/K/mol
348.15 K
  molar heat capacity at constant pressure: 601 ± 26 J/K/mol
349.15 K
  molar heat capacity at constant pressure: 602 ± 26 J/K/mol
350.15 K
  molar heat capacity at constant pressure: 604 ± 26 J/K/mol
351.15 K
  molar heat capacity at constant pressure: 604 ± 26 J/K/mol
352.15 K
  molar heat capacity at constant pressure: 605 ± 26 J/K/mol
353.15 K
  molar heat capacity at constant pressure: 606 ± 26 J/K/mol
